Measured values: PubChem BioAssay AID328 (DTP/NCI, 2004)
“And” between values parts separate entries of the source, which are not always exact repeats. Equal entries are not always repeated. Toxic doses and inconclusive results are not listed.

Columns and labels:
[1] = tested on: BDF1 mice, P388 leukemia ip; test: NCI In Vivo Anticancer Drug Screen. Data for tumor model P388 Leukemia (intraperitoneal) in B6D2F1 (BDF1) mice; settings: endpoint: mean survival time, schedule: Q01DX009 (ip), vehicle: water, higher = longer survival
Summary of the method: (§1)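 Mice carrying the transplantable tumour receive compound or vehicle. Survival is followed in each arm, and the treated measure is divided by the vehicle measure.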

[2] = tested on: BDF1 mice, P388 leukemia ip, median survival T/C; test: as above; settings: endpoint: median survival time, higher = longer survival
Summary of the method: as §1

[3] = dose: 50.0 mg/kg/injection, schedule: Q01DX009 (ip), vehicle: saline with Tween-80
[4] = dose: 100.0 mg/kg/injection, schedule: Q01DX009 (ip), vehicle: saline with Tween-80
[5] = dose: 200.0 mg/kg/injection, schedule: Q01DX009 (ip), vehicle: saline with Tween-80
[6] = dose: 400.0 mg/kg/injection, schedule: Q01DX009 (ip), vehicle: saline with Tween-80
[7] = dose: 100.0 mg/kg/injection, schedule: Q04DX003 (ip), vehicle: saline with Tween-80
[8] = dose: 100.0 mg/kg/injection, schedule: Q01DX001 (ip), vehicle: saline with Tween-80
[9] = dose: 200.0 mg/kg/injection, schedule: Q01DX001 (ip), vehicle: saline with Tween-80
[10] = dose: 25.0 mg/kg/injection, schedule: Q04DX003 (ip), vehicle: saline with Tween-80
[11] = dose: 50.0 mg/kg/injection, schedule: Q04DX003 (ip), vehicle: saline with Tween-80
[12] = dose: 100.0 mg/kg/injection, schedule: Q01DX009 (ip), vehicle: Klucel (hydroxypropylcellulose) (HPC)
[13] = dose: 200.0 mg/kg/injection, schedule: Q01DX009 (ip), vehicle: Klucel (hydroxypropylcellulose) (HPC)

SMILES: COc1cc2cnccc2cc1OCc1ccccc1
- T/C ([1]; dose: 6.25 mg/kg/injection): 95 % of control
- T/C ([1]; dose: 12.5 mg/kg/injection): 100 % of control
- T/C ([1]; dose: 25.0 mg/kg/injection): 106 % of control
- T/C ([1]; dose: 50.0 mg/kg/injection): 108 % of control
- T/C ([1]; dose: 100.0 mg/kg/injection): 90 % of control
- T/C ([1]; dose: 200.0 mg/kg/injection): 100 % of control

SMILES: CC(Nc1ccc(Br)cc1[N+](=O)[O-])C(=O)O (stereo not given)
- T/C ([2]; dose: 25.0 mg/kg/injection, schedule: Q01DX009 (ip), vehicle: saline with Tween-80): 122 % of control
- T/C [2, 3]: 94 % of control
- T/C [2, 4]: 112 % of control
- T/C [2, 5]: 114 % of control

SMILES: COC(=O)C(Br)c1cccc(OC)c1 (stereo not given)
- T/C ([2]; dose: 58.5 mg/kg/injection, schedule: Q01DX009 (ip), vehicle: saline with Tween-80): 100 % of control
- T/C ([2]; dose: 88.0 mg/kg/injection, schedule: Q01DX009 (ip), vehicle: saline with Tween-80): 100 % of control
- T/C ([2]; dose: 132.0 mg/kg/injection, schedule: Q01DX009 (ip), vehicle: saline with Tween-80): 90 % of control
- T/C [2, 5]: 100 % of control and 120 % of control

SMILES: O=C1c2ccc(Br)cc2-c2cc(Br)ccc21
- T/C [2, 4]: 99 % of control
- T/C [2, 5]: 106 % of control
- T/C [2, 6]: 101 % of control

SMILES: NC(c1ccccc1)C(N)c1ccccc1 (stereo not given)
- T/C [2, 7]: 95 % of control

SMILES: CSC(=S)NN=C(C)C
- T/C ([2]; dose: 3.13 mg/kg/injection, schedule: Q01DX009 (ip), vehicle: saline with Tween-80): 96 % of control

SMILES: Cc1cc(=O)[nH]c2cc(Br)ccc12
- T/C [2, 8]: 104 % of control
- T/C [2, 9]: 90 % of control
- T/C ([2]; dose: 400.0 mg/kg/injection, schedule: Q01DX001 (ip), vehicle: saline with Tween-80): 90 % of control

SMILES: Cc1nnc(NS(=O)(=O)c2ccc(N=Nc3nc4[nH]c(N)nc(=S)c4[nH]3)cc2)s1
- T/C ([2]; dose: 5.5 mg/kg/injection, schedule: Q01DX009 (ip), vehicle: saline): 114 % of control
- T/C ([2]; dose: 12.5 mg/kg/injection, schedule: Q04DX003 (ip), vehicle: Klucel (hydroxypropylcellulose) (HPC)): 95 % of control
- T/C ([2]; dose: 25.0 mg/kg/injection, schedule: Q04DX003 (ip), vehicle: Klucel (hydroxypropylcellulose) (HPC)): 104 % of control
- T/C ([2]; dose: 50.0 mg/kg/injection, schedule: Q04DX003 (ip), vehicle: Klucel (hydroxypropylcellulose) (HPC)): 100 % of control
- T/C ([2]; dose: 80.0 mg/kg/injection, schedule: Q01DX009 (ip), vehicle: Klucel (hydroxypropylcellulose) (HPC)): 155 % of control
- T/C ([2]; dose: 170.0 mg/kg/injection, schedule: Q01DX009 (ip), vehicle: saline): 172 % of control

SMILES: O=C(NC(NC(=O)c1ccc(Cl)cc1)C(Cl)(Cl)Cl)c1ccc(Cl)cc1
- T/C [2, 10]: 90 % of control
- T/C [2, 11]: 86 % of control
- T/C [2, 7]: 90 % of control

SMILES: COC(=O)/C(=C/c1ccccc1)c1ccccc1
- T/C [2, 3]: 101 % of control
- T/C [2, 4]: 99 % of control
- T/C [2, 5]: 96 % of control

SMILES: Nc1ccc(C(=O)Nc2ccc(N(CCCl)CCCl)cc2)cc1
- T/C ([2]; dose: 12.5 mg/kg/injection, schedule: Q01DX009 (ip), vehicle: saline): 108 % of control
- T/C ([2]; dose: 25.0 mg/kg/injection, schedule: Q04DX003 (ip), vehicle: saline): 152 % of control
- T/C ([2]; dose: 50.0 mg/kg/injection, schedule: Q01DX009 (ip), vehicle: saline): 173 % of control
- T/C ([2]; dose: 50.0 mg/kg/injection, schedule: Q04DX003 (ip), vehicle: saline): 216 % of control
- T/C ([2]; dose: 100.0 mg/kg/injection, schedule: Q01DX009 (ip), vehicle: saline): 170 % of control
- T/C ([2]; dose: 150.0 mg/kg/injection, schedule: Q01DX009 (ip), vehicle: saline): 92 % of control

SMILES: O=C(Nc1ccc(C2=NCCN2)cc1)c1ccc(C(=O)Nc2ccc(C3=NCCN3)cc2)c(F)c1
- T/C [2, 7]: 172 % of control
- T/C ([2]; dose: 200.0 mg/kg/injection, schedule: Q04DX003 (ip), vehicle: saline with Tween-80): 213 % of control
- T/C ([2]; dose: 264.0 mg/kg/injection, schedule: Q04DX003 (ip), vehicle: saline with Tween-80): 226 % of control
- T/C ([2]; dose: 400.0 mg/kg/injection, schedule: Q04DX003 (ip), vehicle: saline with Tween-80): 250 % of control and 221 % of control
- T/C ([2]; dose: 600.0 mg/kg/injection, schedule: Q04DX003 (ip), vehicle: saline with Tween-80): 191 % of control

SMILES: Cn1c(-c2ccccc2)c2c(c1-c1ccccc1)CCCC2
- T/C ([2]; dose: 100.0 mg/kg/injection, schedule: Q04DX002 (ip), vehicle: saline with Tween-80): 88 % of control
- T/C ([2]; dose: 200.0 mg/kg/injection, schedule: Q04DX002 (ip), vehicle: saline with Tween-80): 87 % of control

SMILES: Oc1ccc2ccc3[nH]cnc3c2c1
- T/C ([2]; dose: 50.0 mg/kg/injection, schedule: Q01DX009 (ip), vehicle: Klucel (hydroxypropylcellulose) (HPC)): 95 % of control
- T/C [2, 12]: 95 % of control
- T/C [2, 13]: 100 % of control

SMILES: CCCCCCCCCCC(N)P(=O)(O)O (stereo not given)
- T/C ([2]; dose: 12.5 mg/kg/injection, schedule: Q04DX003 (ip), vehicle: saline with Tween-80): 92 % of control
- T/C [2, 10]: 92 % of control
- T/C [2, 11]: 92 % of control

SMILES: Cc1ccc2nc(C)n(C)c(=O)c2c1
- T/C [2, 3]: 98 % of control
- T/C [2, 4]: 91 % of control
- T/C [2, 5]: 92 % of control

SMILES: N#CC1(c2ccc(Cl)cc2)CC1
- T/C [2, 12]: 95 % of control
- T/C ([2]; dose: 100.0 mg/kg/injection, schedule: Q04DX003 (ip), vehicle: Klucel (hydroxypropylcellulose) (HPC)): 92 % of control
- T/C [2, 13]: 100 % of control
- T/C ([2]; dose: 200.0 mg/kg/injection, schedule: Q04DX003 (ip), vehicle: Klucel (hydroxypropylcellulose) (HPC)): 100 % of control

SMILES: O=S(=O)(CBr)N1CCOCC1
- T/C ([2]; dose: 50.0 mg/kg/injection, schedule: Q01DX001 (ip), vehicle: saline with Tween-80): 95 % of control
- T/C [2, 8]: 100 % of control
- T/C [2, 9]: 108 % of control

SMILES: COc1ccc(/C=C/C(=O)c2ccccc2)cc1Br
- T/C [2, 4]: 109 % of control
- T/C [2, 5]: 109 % of control
- T/C [2, 6]: 113 % of control

SMILES: CC1=CC(=O)N(O)CCCC(N)C(=O)OCCC(C)=CC(=O)N(O)CCCC(N)C(=O)OCCC(C)=CC(=O)N(O)CCCC(N)C(=O)OCC1 (stereo not given)
- T/C ([2]; dose: 3.0 mg/kg/injection, schedule: Q01DX009 (ip), vehicle: Klucel (hydroxypropylcellulose) (HPC)): 89 % of control
- T/C ([2]; dose: 6.0 mg/kg/injection, schedule: Q01DX009 (ip), vehicle: Klucel (hydroxypropylcellulose) (HPC)): 87 % of control
- T/C ([2]; dose: 12.0 mg/kg/injection, schedule: Q01DX009 (ip), vehicle: Klucel (hydroxypropylcellulose) (HPC)): 87 % of control
- T/C ([2]; dose: 24.0 mg/kg/injection, schedule: Q01DX009 (ip), vehicle: Klucel (hydroxypropylcellulose) (HPC)): 92 % of control

SMILES: C/C(=N\N1CCCCCC1)c1ccccc1
- T/C ([2]; dose: 50.0 mg/kg/injection, schedule: Q04DX003 (sc), vehicle: olive oil, sesame oil, peanut oil): 95 % of control
- T/C ([2]; dose: 100.0 mg/kg/injection, schedule: Q04DX003 (sc), vehicle: olive oil, sesame oil, peanut oil): 95 % of control
- T/C ([2]; dose: 200.0 mg/kg/injection, schedule: Q04DX003 (sc), vehicle: olive oil, sesame oil, peanut oil): 91 % of control

SMILES: NC(c1ccccc1)S(=O)(=O)O (stereo not given)
- T/C [2, 3]: 115 % of control
- T/C [2, 4]: 121 % of control
- T/C [2, 5]: 93 % of control
- T/C [2, 6]: 95 % of control

SMILES: O=C1NS(=O)(=O)c2ccccc21
- T/C [2, 3]: 100 % of control
- T/C [2, 4]: 90 % of control
- T/C [2, 5]: 103 % of control
